Legend:
[1] = system: PPARγ2-mice and LacZ-mice; test: Bupranolol loading test (serum FFA); assay type: in vivo; conditions: fed state, 10 mg/kg intraperitoneal
Procedure: (A) Plasma lipid parameters (left: total cholesterol, middle: triglyceride (TG), right: free fatty acids (FFA)) in LacZ-mice (white bars) and PPARγ2-mice (black bars) on day 7 after adenoviral administration were measured in the 10 hour fasted state. (B-C) Relative amounts of UCP1 (left), PGC-1α (middle) and HSL (right) in brown adipose tissue (B) and epididymal fat tissue (C) from ad libitum-fed LacZ-mice (white bars) and PPARγ2-mice (black bars) on day 7 after adenoviral administration. (D) A pan-β adrenergic blocker, bupranolol, was injected intraperitoneally into LacZ-mice (open circles) and PPARγ2-mice (closed circles) in the fed state, on day 5 after adenoviral administration, followed by measurement of serum FFA levels. Data were expressed as percentages of serum FFA levels immediately before intraperitoneal bupranolol loading (10 mg/kg of body weight). Date are presented as mean±SD. **P<0.01 and *P<0.05, compared to control mice, by unpaired t test.
Glucose tolerance tests were performed on mice fasted for 10 hours as previously described (Y. Ishigaki et al., Diabetes 54, 322 (2005)). Insulin tolerance tests were performed on ad libitum fed mice. […] Serum FFA levels were measured immediately before and at 30 and 60 min after injection of inraperitoneal bupranolol (10 mg/kg of body weight, Kaken Pharmaceutical Co., Ltd. Tokyo, Japan).

[2] = system: Male SD rats with high fat diet-induced obesity; test: Perivagal capsaicin or vehicle 7 days prior to LacZ or PPARγ2 adenovirus; assay type: in vivo; conditions: perivagal capsaicin treatment
Procedure: Table 1. Afferent vagal activation from the liver is involved in remote effects of hepatic PPARγ2 expression. (Upper Column) Mice were subjected to hepatic vagotomy or sham operation 7 days prior to administration of LacZ or PPARγ2 adenovirus. Resting oxygen consumption (VO2) was measured on day 3 after adenoviral injection. Mice were sacrificed after a 10 hour fast on day 7 after adenoviral injection. (Lower Column) Male SD rats with high fat diet-induced obesity were subjected to application of capsaicin or vehicle to the vagal hepatic branch 7 days prior to administration of LacZ or PPARγ2 adenovirus. Seven days after adenoviral administration, epididymal fat weights were determined. P values: compared to LacZ-mice, by unpaired t test. n.s.: not significant.
Hepatic vagotomy involves dissection of both afferent and efferent vagal branches innervating the liver. To determine whether the remote effects of hepatic PPARγ2 expression are mediated by the afferent vagus, we applied a specific afferent neurotoxin, capsaicin, to the hepatic branch of the vagus of diet-induced obese male SD rats. Seven days after perivagal application of capsaicin or vehicle, we administered recombinant adenovirus encoding LacZ or PPARγ2. […] These observations indicate selective de-afferentation of the hepatic branch of the vagus. […]

[3] = system: hepatic branch of the vagus; test: Perivagal capsaicin: vagal nerve immunohistochemistry and transmission electron microscopy; assay type: in vivo, rats; conditions: 7 days after perivagal application
Procedure: SD rats were treated with perivagal application of vehicle or capsaicin, 7 days prior to removal of the hepatic vagal nerves from vehicle-treated rats (veh) and capsaicin-treated rats (cap), and the esophgeal branch of the posterior vagal trunk from capsaicin-treated rats (eso). (A) Immunohistochemistry of the vagal nerves with anti-calcitonin gene-related peptide (CGRP) and anti-S100 antibodies. Magnification: ×400. The graphs show immunohistological staining intensities and the data are expressed as percentages of the intensities in vehicle-treated vagal nerve. (B) Transmission electron microscopy of the vagal nerves. While myelinated fibers are intact (arrows), unmyelinated fibers have been selectively degraded in perivagal capsaicin-treated nerves (arrowheads). Representative images from two rats of each group are shown.
After 4 weeks of a high-fat diet starting at 5 weeks of age, male SD rats were subjected to selective hepatic vagal afferent blockade. The hepatic branch of this vagal trunk was exposed as described above, then loosely tied with a cotton string immersed with or without capsaicin (Sigma Chemical Co, St Louis, Mo., USA) dissolved in olive oil (5% wt/vol). The cotton string was removed 30 min later and the abdominal incision was closed. Seven days after perivagal application of capsaicin or vehicle, recombinant adenovirus encoding LacZ or PPARγ2, at a dose of 6.5×10^8 plaque forming units (PFU), was injected via the tail vein.
Livers, WAT and BAT were removed and fixed with 10% formalin and embedded in paraffin. Tissue sections were stained with hematoxylin eosin. Total adipocyte areas were traced manually. Brown and white adipocyte diameters were measured in 150 or more cells per mouse in each group. For vagal nerve immunohistochemistry, SD rats were anesthetized with pentobarbiturate (60 mg/kg), and then perfused transcardially with saline and sequentially with 4% paraformaldehyde in 0.2 M phosphate buffer (PB; pH 7.4). […] The intensities of bands were quantified with the NIH image 1.62 program. […]

## Cc1ccc(Cl)c(OCC(O)CNC(C)(C)C)c1 (stereo not drawn) [bupranolol]
[1]; LacZ-mice
  serum FFA: no effect
[1]; PPARγ2-mice
  serum FFA: decreased

## COc1cc(CNC(=O)CCCC/C=C/C(C)C)ccc1O [capsaicin]
[2]
  hepatic PPARγ2 expression-induced decrease in WAT weight: completely blocked
[3]
  unmyelinated fibers in the vagal hepatic branch (electron microscopy): selective degradation
[3]; versus vehicle
  Expression of calcitonin gene-related peptide in vagal nerve: markedly decreased
  immunoreactivity for S100 proteins: similar
